The data set is described as follows: method code SF-AS, from PMID: 1438511.

The compound `c1ccc(OCc2cccc(CN3CCCCCC3)c2)cc1` gave a logP of 2.87. `c1ccc(OCc2cccc(CN3CCCOC3)c2)cc1` had a logD (pH 8.0) of 2.75.

(Values after the SangsterLogP compilation.)
